# According to PubChem BioAssay (NCI):
#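 Dose response: 5 concentrations. Exposure: 48 h. Format: 96-well plates. Endpoint: linear interpolation; highest concentration if not reached. The concentration for full growth arrest is given as TGI.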
# Tests used:
# Assay in all cases: growth of human tumour cells (NCI), 48 h
# [1] = tested on: OVCAR-5 ovarian
# [2] = tested on: SW-620 colon
# [3] = tested on: T-47D breast
# [4] = tested on: BT-549 breast
# [5] = tested on: SK-MEL-5 melanoma
# [6] = tested on: IGROV1 ovarian
# [7] = tested on: NCI-H226 lung
# [8] = tested on: CAKI-1 renal
# [9] = tested on: LOX IMVI melanoma
# [10] = tested on: UO-31 renal
# [11] = tested on: NCI-H23 lung
# [12] = tested on: NCI-H522 lung
# [13] = tested on: OVCAR-4 ovarian
# [14] = tested on: OVCAR-8 ovarian
# [15] = tested on: SK-OV-3 ovarian
# [16] = tested on: HCC-2998 colon
# [17] = tested on: MCF7 breast
# [18] = tested on: HCT-116 colon
# [19] = tested on: ACHN renal
# [20] = tested on: RXF 393 renal
# [21] = tested on: HOP-92 NSCLC
# [22] = tested on: MDA-N
# [23] = tested on: HS 578T breast
# [24] = tested on: HL-60(TB) leukemia
# [25] = tested on: PC-3 prostate
# [26] = tested on: A549 NSCLC
# [27] = tested on: MALME-3M melanoma
# [28] = tested on: KM12 colon
# [29] = tested on: SF-539 CNS
# [30] = tested on: SK-MEL-2 melanoma
# [31] = tested on: MDA-MB-435
# [32] = tested on: UACC-62 melanoma
# [33] = tested on: SR leukemia
# [34] = tested on: CCRF-CEM leukemia
# [35] = tested on: HT29 colon
# [36] = tested on: SK-MEL-28 melanoma
# [37] = tested on: 786-0 renal
# [38] = tested on: HCT-15 colon
# [39] = tested on: OVCAR-3 ovarian
# [40] = tested on: TK-10 renal
# [41] = tested on: A498 renal
# [42] = tested on: SF-295 CNS
# [43] = tested on: UACC-257 melanoma
# [44] = tested on: NCI-H460 lung
# [45] = tested on: MDA-MB-231 breast
# [46] = tested on: K-562 leukemia
# [47] = tested on: RPMI-8226 leukemia
# [48] = tested on: U251 CNS
# [49] = tested on: SNB-19 CNS
# [50] = tested on: EKVX NSCLC
# [51] = tested on: NCI/ADR-RES ovarian
# [52] = tested on: M14 melanoma
# [53] = tested on: SNB-75 CNS
# [54] = tested on: DU-145 prostate
# [55] = tested on: COLO 205 colon
# [56] = tested on: MOLT-4 leukemia
# [57] = tested on: SN12C renal
# [58] = tested on: SF-268 CNS
# [59] = tested on: HOP-62 NSCLC
smiles,measurement,setting,value
COc1ccc(NC2=NCCO2)c2c1CCCC2,TGI,[1],> 100 µM
same,TGI,[2],> 100 µM
same,TGI,[3],> 100 µM
same,TGI,[4],> 100 µM
same,TGI,[5],33.7 µM
same,TGI,[6],> 100 µM
same,TGI,[7],65.3 µM
same,TGI,[8],> 100 µM
same,TGI,[9],> 100 µM
same,TGI,[10],> 100 µM
same,TGI,[11],87.9 µM
same,TGI,[12],> 100 µM
same,TGI,[13],> 100 µM
same,TGI,[14],> 100 µM
same,TGI,[15],84.8 µM
same,TGI,[16],> 100 µM
same,TGI,[17],> 100 µM
same,TGI,[18],> 100 µM
same,TGI,[19],> 100 µM
same,TGI,[20],86.2 µM
same,TGI,[21],79.5 µM
same,TGI,[22],> 100 µM
same,TGI,[23],91.6 µM
same,TGI,[24],40 µM
same,TGI,[25],> 100 µM
same,TGI,[26],> 100 µM
same,TGI,[27],> 100 µM
same,TGI,[28],> 100 µM
same,TGI,[29],> 100 µM
same,TGI,[30],42.6 µM
same,TGI,[31],> 100 µM
same,TGI,[32],89.2 µM
same,TGI,[33],88.2 µM
same,TGI,[34],86 µM
same,TGI,[35],> 100 µM
same,TGI,[36],> 100 µM
same,TGI,[37],> 100 µM
same,TGI,[38],> 100 µM
same,TGI,[39],> 100 µM
same,TGI,[40],> 100 µM
same,TGI,[41],> 100 µM
same,TGI,[42],> 100 µM
same,TGI,[43],> 100 µM
same,TGI,[44],> 100 µM
same,TGI,[45],> 100 µM
same,TGI,[46],> 100 µM
same,TGI,[47],87 µM
same,TGI,[48],> 100 µM
same,TGI,[49],> 100 µM
same,TGI,[50],> 100 µM
same,TGI,[51],> 100 µM
same,TGI,[52],> 100 µM
same,TGI,[53],93.9 µM
same,TGI,[54],> 100 µM
same,TGI,[55],> 100 µM
same,TGI,[56],42.4 µM
CC1=NC(C)(C)[N+]([O-])=C1,TGI,[1],> 10 µM
same,TGI,[2],> 10 µM
same,TGI,[3],> 10 µM
same,TGI,[4],> 10 µM
same,TGI,[5],> 10 µM
same,TGI,[6],> 10 µM
same,TGI,[7],> 10 µM
same,TGI,[8],> 10 µM
same,TGI,[9],> 10 µM
same,TGI,[10],> 10 µM
same,TGI,[11],> 10 µM
same,TGI,[12],> 10 µM
same,TGI,[14],> 10 µM
same,TGI,[15],> 10 µM
same,TGI,[16],> 10 µM
same,TGI,[17],> 10 µM
same,TGI,[18],> 10 µM
same,TGI,[19],> 10 µM
same,TGI,[20],> 10 µM
same,TGI,[21],> 10 µM
same,TGI,[22],> 10 µM
same,TGI,[23],> 10 µM
same,TGI,[24],> 10 µM
same,TGI,[25],> 10 µM
same,TGI,[26],> 10 µM
same,TGI,[27],> 10 µM
same,TGI,[28],> 10 µM
same,TGI,[29],> 10 µM
same,TGI,[30],> 10 µM
same,TGI,[31],> 10 µM
same,TGI,[32],> 10 µM
same,TGI,[33],> 10 µM
same,TGI,[34],> 10 µM
same,TGI,[35],> 10 µM
same,TGI,[36],> 10 µM
same,TGI,[37],> 10 µM
same,TGI,[38],> 10 µM
same,TGI,[39],> 10 µM
same,TGI,[40],> 10 µM
same,TGI,[41],> 10 µM
same,TGI,[42],> 10 µM
same,TGI,[43],> 10 µM
same,TGI,[44],> 10 µM
same,TGI,[45],> 10 µM
same,TGI,[46],> 10 µM
same,TGI,[47],> 10 µM
same,TGI,[48],> 10 µM
same,TGI,[49],> 10 µM
same,TGI,[57],> 10 µM
same,TGI,[50],> 10 µM
same,TGI,[51],> 10 µM
same,TGI,[58],> 10 µM
same,TGI,[52],> 10 µM
same,TGI,[53],4.85 µM
same,TGI,[54],> 10 µM
same,TGI,[55],> 10 µM
same,TGI,[56],> 10 µM
same,TGI,[59],> 10 µM
